{
  "source": "patent US20030224349A1",
  "about": "“Rapid assay to assess the potential for glucocorticoid analogs to promote the differentiation of human osteoblasts and predict bone safety” (Pfizer Inc., priority 2002, published 2003)",
  "type_in_all_cases": "cell-based",
  "key": {"[1]": {"system": "primary human osteoblasts", "test": "alkaline phosphatase assay in primary human osteoblasts", "conditions": "13 days of treatment", "experimental": "For alkaline phosphatase testing, primary human osteoblasts (Biowhittaker CC-2538) were plated at a density of 4,400 cells per well in 24-well plates containing OGM medium (Biowhittaker CC-3207) with 10% Fetal Bovine Serum (FBS). The next day media was changed to OGM medium supplemented with 0.1 mM ascorbic acid and 10 mM □-glycerophosphate (differentiation supplements, Biowhittaker CC-4194), and treated with reference and test compounds in a range of doses from 100 nM to 10 uM). Fresh media was added 2× per week.\nAfter 13 days the cells were harvested and extract prepared for analysis.\nDifferentiation supplement medium was changed every three to four days with fresh test compound addition each time. After seven to thirteen days, the amount of alkaline phosphatase produced by the cultures was quantified using commercial alkaline phosphatase reagent (ALP Reagent) and standard (Sigma M2266 and 245-10, respectively).\nCells were rinsed with 0.9% NaCl, and lysed in alkaline phosphatase assay buffer (150 mM Tris-HCl pH 8, 0.1 mM MgCl2, 0.1 mM ZnCl2, 1% Triton X-100). Prewarmed ALP Reagent was added to lysate or to serial dilutions of the alkaline phosphatase standard and incubated at 37° C. for 30 minutes.\nThe calorimetric endpoint of absorbance at 405 nm was read on a SpectraMax 340 microplate reader (Molecular Devices), and after extrapolation from standard curve, values were reported in units of enzyme activity per volume."}, "MMP13": {"system": "MMP13", "test": "inhibition of IL-1β-induced MMP13 release in SW1353 chondrocyte cells (ELISA)", "conditions": "Homo sapiens, read-out: IC50, concentration reducing the release of MMP13 50%"}, "[2]": {"system": "primary human osteoblasts", "test": "nodule assay (Von Kossa staining) in primary human osteoblasts", "conditions": "28 days of treatment", "experimental": "Primary human osteoblasts were cultured as for the alkaline phosphatase assay. After 28 days of test compound treatment, the cultures were fixed with 70% ethanol for 10 minutes, stained with 5% silver nitrate solution and exposed to bright light (Polaroid imaging system with 4×150 watt lamps) for 20 to 30 minutes. Wells were rinsed with water, air dried and nodules documented by micrographs at 300× magnification."}, "IL-8": {"system": "IL-8", "test": "inhibition of IL-1β-induced IL-8 release in SW1353 chondrocyte cells (ELISA)", "conditions": "Homo sapiens, SW1353, 24 h, read-out: IC50, concentration reducing the release of IL-8 50%", "protocol": "Glucocorticoids have anti-inflammatory efficacy in a variety of cell models. Clinically, glucocorticoids set the benchmark for anti-inflammatory therapeutics.\nFor efficacy testing, 10,000 SW1353 cells (ATCC# HTB-94) were plated in 96 well plates in DMEM with 10% Fetal Bovine Serum (FBS). The next day media was changed to DMEM without serum.\nAfter 24 hours the amount of MMP13 and IL-8 released into the media was quantified using commercial ELISA assays (Amersham and R&D Systems, respectively).\nThe concentration of compound reducing the release of MMP13 or IL-8 50% (IC50) was determined from the plot of the drug dose vs. percent inhibition relative to the vehicle control."}},
  "note": "Read-outs that look alike come from different tables or passages of the source.",
  "data": [
    {"smiles": "C[C@]12CCC(=O)C=C1CC[C@@H]1[C@@H]2[C@@H](O)C[C@@]2(C)[C@H]1CC[C@]2(O)C(=O)CO", "note": "[hydrocortisone]", "values": [
      {"measurement": "induction of alkaline phosphatase production/activity (in words)", "setting": "[1]", "value": "stimulated"},
      {"measurement": "alkaline phosphatase expression, % of dexamethasone maximum", "setting": "[1]; at 1 uM", "value": "about 64%"},
      {"measurement": "induction of alkaline phosphatase production/activity (in words)", "setting": "[1]; listed as Hydrocortisone", "value": "dose dependent increase"},
      {"measurement": "IC50", "setting": "MMP13; SW1353 cells, 10 ng/ml IL-1β, 24 hours", "value": 60, "unit": "nM"},
      {"measurement": "nodule formation / mineral deposition (Von Kossa staining, in words)", "setting": "[2]", "value": "dose-dependant nodule formation"}
    ]},
    {"smiles": "C[C@@H]1C[C@H]2[C@@H]3CCC4=CC(=O)C=C[C@]4(C)[C@@]3(F)[C@@H](O)C[C@]2(C)[C@@]1(O)C(=O)CO", "note": "[dexamethasone]", "values": [
      {"measurement": "IC50", "setting": "IL-8", "value": "~1", "unit": "nM"},
      {"measurement": "IC50", "setting": "MMP13; SW1353, 24 h", "value": "~1", "unit": "nM"}
    ]}
  ]
}
